What was measured:
[1] = tested on: DNA with a single base mismatch; experiment: Discrimination of single base mismatches (Tm of mismatched PNA-DNA duplex); format: binding; details: for ΔTm (Tm), TC mismatch: number before the brackets / ΔTm (Tm), TG mismatch: number before the brackets / ΔTm (Tm), TT mismatch: number before the brackets: PNA-DNA duplex with single base mismatch; for ΔTm (Tm), TC mismatch: number in brackets / ΔTm (Tm), TG mismatch: number in brackets / ΔTm (Tm), TT mismatch: number in brackets: against fully matched duplex
Source text: The sequence specificity of thyclotide 3d was examined by determining the change in Tm of a PNA-DNA duplex when a single base mismatch is present. […] The large differences in melting temperature between matched PNA-DNA duplex and mismatch PNA-DNA of thyclotide 3d allows one to control hybridization conditions to exclude the formation of mismatched PNA-DNA by adjust the temperature. Such enhanced single base pair mismatch-discrimination capability could make thyclotide 3d become a powerful tool for the detection of point-mutations and single nucleotide polymorphisms (SNPs).

[2] = tested on: complementary DNA; experiment: Melting temperature of PNA-DNA complexes (thermal denaturation); format: binding; details: for Tm: PNA bound to complementary DNA; for ΔTm: increase over aegPNA 1a-DNA duplex
Source text: Although the stabilizing effect of tetrahydrofuran for PNA-DNA duplex is slightly lower than that of cyclopentane (3d vs 9 and 2a, Table 2), it strikes a balance between water solubility and binding properties and, therefore the combination of those two backbone modifications could be tailor-made to meet the specific requirements.

[3] = CD spectra, conformation of PNA; format: physicochemical
Experimental: The CD spectra of thyclotides 3a-3d were measured. […] However, in the case of thyclotides 3a-3d, distinct distinctive positive peaks around 220 and 269 nm and negative peaks around 204 and 247 nm were noticed. […] The amplitude of the cotton effects increases as more tetrahydrofuran modifications are introduced.

Substance	ΔTm (Tm), TC mismatch: number before the brackets [1]	ΔTm (Tm), TC mismatch: number in brackets [1]	ΔTm (Tm), TG mismatch: number in brackets [1]	ΔTm (Tm), TT mismatch: number in brackets [1]	Tm [2] [°C]	ΔTm [2] [°C]	CD spectrum / conformation [3]	ΔTm (Tm), TG mismatch: number before the brackets [1]	ΔTm (Tm), TT mismatch: number before the brackets [1]	difference in melting temperature between fully matched duplex and duplex with a single base mismatch (ΔTm), in words ([1]; compared with aegPNA, tcypPNA 2a and mixPNA 9)
G*A*T*G#T#G#A*T*A*-AEEA [compound 9]	57.7	−27.4	−20.3	−19.5	84.5	42.5	–	–	–	–
G#A#T#G#T#G#A#T#A#-AEEA [2a, reference compound]	–	−30.6	−20.6	−22.8	93.7	51.7	–	–	–	–
GATGTGATA-AEEA [1a, reference compound]	22.9	−19.2	−16.6	−13.8	42.0	–	does not show any distinct peaks	25.4	28.2	–
GAT*GT*GAT*A-AEEA [3c]	–	–	–	–	54.9	12.9	–	–	–	–
GATGT*GATA-AEEA [3a]	–	–	–	–	44.7	2.7	–	–	–	–
G*A*T*G*T*G*A*T*A*-AEEA [3d]	50.7	−26.2	−21.4	−18.8	77	35	–	55.6	58.2	significantly higher than that of the corresponding aegPNA
GAT*GTGAT*A-AEEA [3b]	–	–	–	–	49.7	7.7	–	–	–	–
